From patent publication US20240116946A1 (Gilead Sciences, Inc., priority 2022, published 2024)
Like-named read-outs stand apart in the source and are kept apart here.

Assays:
[1] = tested on: SARS-CoV-2-NLuc; assay: microbe, parasite or virus in culture; format: cell-based, SARS Coronavirus 2
[2] = target: recombinant SARS-CoV-2 Main protease (Mpro) (Severe acute respiratory syndrome coronavirus 2 (2019-nCoV) (SARS-CoV-2), UniProt P0DTD1); assay: Cov Mpro Biochemical IC50 Assay
[3] = Severe acute respiratory syndrome coronavirus, 48 h, read-out: MPro EC50
[4] = recombinant SARS-CoV-2 Mpro 7.5 nM, fluorogenic peptide substrate 40 μM, read-out: MPro IC50
[5] = recombinant SARS-CoV-2 Mpro, fluorogenic peptide substrate, read-out: MPro IC50
[6] = Severe acute respiratory syndrome coronavirus, 48 h; read-out: MPro EC50

| Compound | EC50 [1, 3] | IC50 [2, 4] | IC50 [2, 5] | further results |
| --- | --- | --- | --- | --- |
| COc1cc(-c2ccc3c(=O)n(-c4cncc5ccccc45)c(=O)n(CCC#N)c3c2)c(Cl)cc1F [Example 949] | 0.757 µM | 0.147 µM | – | – |
| COc1ccc(C#N)c(-c2cc3[nH]c(=O)n(-c4cncc5ncsc45)c(=O)c3s2)c1 [Example 484] | 0.482 µM | 0.0389 µM | – | – |
| O=c1[nH]c2cc(-c3ccc4ccccc4c3)ccc2c(=O)n1-c1cncc2ccccc12 [Example 51] | 6.8 µM | – | > 100 µM | – |
| COc1cc(-c2cc3c(s2)c(=O)n(-c2cncc4nc(-c5ccc(F)cc5)n(C)c24)c(=O)n3CCC#N)c(Cl)cc1F [Example 758] | 0.142 µM | 0.0189 µM | – | – |
| Cc1noc(C)c1-c1ccc2c(=O)n(-c3cncc4ccccc34)c(=O)[nH]c2c1 [Example 44] | – | – | – | EC50 [1, 6]: 3 µM; IC50 ([2]; MPro IC50, recombinant SARS-CoV-2 Mpro, fluorogenic peptide substrate): 1.37 µM |
| O=c1[nH]c2cc(-c3cccc(Cl)c3Cl)ccc2c(=O)n1-c1cncc2ccccc12 [Example 59] | 6.01 µM | – | > 100 µM | – |
| NC(=O)COc1cccc(Cl)c1-c1ccc2c(=O)n(-c3cncc4ccccc34)c(=O)[nH]c2c1 [Example 91] | 1.14 µM | – | 0.216 µM | – |
| COc1cc(-c2cc3[nH]c(=O)n(-c4cncc5ccc(F)cc45)c(=O)c3s2)c(Cl)cc1F [Example 763] | 0.0134 µM | 0.0102 µM | – | – |
| Cc1c(Cl)cncc1-n1c(=O)c2sc(-c3ccc(F)cc3C#N)cc2n(CCC#N)c1=O [Example 808] | – | 0.0745 µM | – | EC50 [1, 6]: 0.183 µM |
| COc1cc(Cl)c(-c2cc3[nH]c(=O)n(-c4cncc5ccccc45)c(=O)c3s2)cc1Cl [Example 724] | 0.0171 µM | 0.00942 µM | – | – |
| O=c1[nH]c2cc(-c3c(Cl)cccc3-c3ccc4c(c3)OC(F)(F)O4)sc2c(=O)n1-c1cncc2ccccc12 [Example 353] | 0.0315 µM | – | 0.143 µM | – |
| Cn1ccc(-c2cccc(Cl)c2-c2ccc3c(=O)n(-c4cncc5ccccc45)c(=O)[nH]c3c2)n1 [Example 146] | 0.0606 µM | – | 0.0997 µM | – |
| COc1cncc(-n2c(=O)c3sc(-c4ccccc4Cl)cc3n(CCC#N)c2=O)c1 [Example 836] | – | 0.0217 µM | – | EC50 [1, 6]: 0.0405 µM |
| Cc1cncc(-n2c(=O)c3sc(-c4cc(F)ccc4C#N)cc3n(CCC#N)c2=O)c1 [Example 881] | – | 0.0117 µM | – | EC50 [1, 6]: 0.0919 µM |
| Cc1ncc(-c2cccc(Cl)c2-c2ccc3c(=O)n(-c4cncc5ccccc45)c(=O)[nH]c3c2)n1C [Example 352] | 0.12 µM | – | 0.0418 µM | – |
| COc1cc(-c2cc3[nH]c(=O)n(-c4cncc5ccccc45)c(=O)c3s2)c(C#N)cc1F [Example 537] | 0.0192 µM | 0.00615 µM | – | – |
| Cc1nn(CC(F)(F)F)cc1-c1cccc(Cl)c1-c1ccc2c(=O)n(-c3cncc4ccccc34)c(=O)[nH]c2c1 [Example 285] | 0.0255 µM | – | 0.0192 µM | – |
| O=c1[nH]c2cc(-c3ccccc3OCc3ccccc3)ccc2c(=O)n1-c1cncc2ccccc12 [Example 57] | 1.52 µM | – | 5.45 µM | – |
| COc1cc(-c2cc3c(s2)c(=O)n(-c2nncc4c(C)nn(C)c24)c(=O)n3CCC#N)c(Cl)cc1F [Example 892] | 0.0329 µM | 0.0135 µM | – | – |
| COc1cc(-c2cc3c(s2)c(=O)n(-c2cncc4cnn(C)c24)c(=O)n3CCC#N)c(C#N)cc1F (single isomer, unassigned) [Example 1003, 2-[1-(2-cyanoethyl)-3-(1-methylpyrazolo[4,3-c]pyridin-7-yl)-2,4-dioxo-thieno[3,2-d]pyrimidin-6-yl]-5-fluoro-4-methoxy-benzonitrile] | – | 0.00283 µM | – | EC50 ([1]; read-out: MPro EC50): 0.00566 µM |
| Cn1nnc2cncc(-n3c(=O)c4sc(-c5ccccc5Cl)cc4n(CCC#N)c3=O)c21 [Example 772] | – | 0.0154 µM | – | EC50 [1, 6]: 0.0469 µM |
| COc1cc(-c2cc3[nH]c(=O)n(-c4cncc5ccccc45)c(=O)c3cc2F)c(C#N)cc1F (single isomer, unassigned) [Example 510, 5-fluoro-2-[6-fluoro-3-(4-isoquinolyl)-2,4-dioxo-1H-quinazolin-7-yl]-4-methoxy-benzonitrile] | – | 0.00705 µM | – | EC50 ([1]; read-out: MPro EC50): 0.0162 µM |

| Compound | EC50 [1, 3] | IC50 [2, 4] | IC50 [2, 5] | further results |
| --- | --- | --- | --- | --- |
| COc1cc(-c2cc3[nH]c(=O)n(-c4cncc5sc(C(C)(C)O)c(C)c45)c(=O)c3s2)c(Cl)cc1F [Example 671] | 0.00744 µM | 0.00585 µM | – | – |
| COc1cnc(Cl)c(-c2cc3c(s2)c(=O)n(-c2cncc4cccc(F)c24)c(=O)n3CCC#N)c1 (single isomer, unassigned) [Example 1095, 3-(6-(2-chloro-5-methoxypyridin-3-yl)-3-(5-fluoroisoquinolin-4-yl)-2,4-dioxo-3,4-dihydrothieno[3,2-d]pyrimidin-1(2H)-yl)propanenitrile] | – | 0.0556 µM | – | EC50 ([1]; read-out: MPro EC50): 0.123 µM |
| COc1ccc(C#N)c(-c2cc3[nH]c(=O)n(-c4cncc5ccc(N6CCn7c(nnc7C(F)(F)F)C6)cc45)c(=O)c3s2)c1 [Example 602] | 0.359 µM | 0.00577 µM | – | – |
| COc1ccc(Cl)c(-c2cc3[nH]c(=O)n(-c4cncc5c(Cl)cccc45)c(=O)c3s2)c1 [Example 595] | 1.18 µM | 0.476 µM | – | – |
| Cc1ccc(-c2cc3[nH]c(=O)n(-c4cncc5ccccc45)c(=O)c3s2)c(Cl)n1 [Example 289] | 0.119 µM | – | 0.0417 µM | – |
| O=c1c2sc(-c3ccccc3Cl)cc2n(Cc2cccnn2)c(=O)n1-c1cncc2ccccc12 [Example 154] | 0.193 µM | – | 0.124 µM | – |
| COc1ccc(Cl)c(-c2cc3[nH]c(=O)n(-c4cncc5c4CCCO5)c(=O)c3s2)c1 [Example 599] | 0.0489 µM | 0.00498 µM | – | – |
| Cn1ncc2cncc(-n3c(=O)[nH]c4cc(-c5ccccc5Cl)sc4c3=O)c21 [Example 495] | 0.0172 µM | 0.00641 µM | – | – |
| COc1cc(-c2cc3[nH]c(=O)n(-c4cncc5nc(C)n(C)c45)c(=O)c3s2)c(Cl)cc1F [Example 764] | 0.257 µM | 0.0181 µM | – | – |
| 6-[2-chloro-6-(8-methyl-[1,2,4]triazolo[1,5-a]pyridin-6-yl)phenyl]-3-(6-methoxy-4-isoquinolyl)-1H-thieno[3,2-d]pyrimidine-2,4-dione [Example 565] | – | 0.0165 µM | – | EC50 ([1]; read-out: MPro EC50): 0.0581 µM |
| COc1cc(-c2cc3[nH]c(=O)n(-c4cncc5cnn(C6CC6)c45)c(=O)c3s2)c(Cl)cc1F [Example 975, 6-(2-chloro-4-fluoro-5-methoxy-phenyl)-3-(1-cyclopropylpyrazolo[4,3-c]pyridin-7-yl)-1H-thieno[3,2-d]pyrimidine-2,4-dione] | 0.0103 µM | 0.00633 µM | – | – |
| COc1cccc(-c2ccc3c(=O)n(-c4cncc5ccccc45)c(=O)[nH]c3c2)c1Cl [Example 295] | 13.5 µM | – | 7.43 µM | – |
| O=c1c2sc(-c3ccccc3Cl)cc2n(Cc2ccncc2)c(=O)n1-c1cncc2ccccc12 [Example 157] | 0.204 µM | – | 0.164 µM | – |
| Cn1ncc2cncc(-n3c(=O)c4sc(-c5cc(Cl)ccc5Cl)cc4n(CCC#N)c3=O)c21 [Example 793] | 0.00502 µM | 0.00663 µM | – | – |
| COc1ccc(Cl)c(-c2cc3[nH]c(=O)n(-c4cncc5ccc(N6CCOCC6)nc45)c(=O)c3s2)c1 [Example 457] | < 0.00604 µM | < 0.00254 µM | – | – |
| Cc1c(F)cncc1-n1c(=O)c2sc(-c3ccccc3C#N)cc2n(CCC#N)c1=O [Example 848] | – | 0.0345 µM | – | EC50 [1, 6]: 0.137 µM |
| O=c1[nH]c2cc(-c3c(F)cccc3Cl)ccc2c(=O)n1-c1cncc2ccccc12 [Example 162, 7-(2-Chloro-6-fluoro-phenyl)-3-(4-isoquinolyl)-1H-quinazoline-2,4-dione] | 0.393 µM | – | 0.344 µM | – |
| O=c1[nH]c2cc(-c3c(Cl)cccc3CO)sc2c(=O)n1-c1cncc2ccccc12 [Example 235] | – | – | 0.0535 µM | EC50 [1, 6]: 0.289 µM |
| COc1cc(-c2cc3[nH]c(=O)n(-c4cncc5ccn(C)c45)c(=O)c3s2)c(Cl)cc1F [Example 454, 6-(2-chloro-4-fluoro-5-methoxyphenyl)-3-(1-methyl-1H-pyrrolo[3,2-c]pyridin-7-yl)thieno[3,2-d]pyrimidine-2,4(1H,3H)-dione] | 0.00389 µM | 0.0048 µM | – | – |
| Cc1nn(C2COC2)c(C)c1-c1cccc(Cl)c1-c1ccc2c(=O)n(-c3cncc4ccccc34)c(=O)[nH]c2c1 [Example 321] | 0.0251 µM | – | 0.00828 µM | – |
| Cc1ccc(-c2cc3[nH]c(=O)n(-c4cncc5ccccc45)c(=O)c3s2)c(Cl)c1 [Example 339] | 0.0482 µM | – | 0.0148 µM | – |
| N#Cc1cc(-c2cccc(Cl)c2-c2ccc3c(=O)n(-c4cncc5ccccc45)c(=O)[nH]c3c2)cnc1N1CCOCC1 [Example 277] | 0.057 µM | – | 0.124 µM | – |
